Oligonucleotides are written 5' to 3', each unit as a sugar letter and its base; * is a phosphorothioate linkage, no mark a phosphodiester; rarer units and linkages stand in square brackets, end groups in braces. Plain capitals give the bases only. d = 2'-deoxy (DNA)

A short description of data set [1]: DLS hydrodynamic diameter of BSA conjugated copolymer (Example 2). Format: physicochemical. The following applies: for PDi: 0.1M PBS pH 7, DLS. As to the method:
^1H-NMR spectra were acquired to characterised compounds using CDCl3 or d-DMSO with a 300 MHz spectrometer. Thermogravimetric analysis (TGA) was carried out using TG5000 to quantify the amount of platinum conjugated to the copolymers. The sample (≤5 mg) was placed on a thermo-balance and heated from room temperature to 600° C. at 20° C./min, and held for an isothermal period of 60 minutes under nitrogen atmosphere. Diameter size of copolymers in 0.1M PBS buffer pH 7.0 was measured using a Malvern dynamic light scattering instrument (DLS) in a disposable plastic cuvette (1 cm path length). Fluorescence measurements were performed on Agilent Cary Eclipse Fluorescence Spectrometer using a 1 cm quartz cuvette. Fluorescence spectra were recorded between 400-800 nm at λex=495 nm, λem=520 nm with entrance and exit slit width of […]. SDS-PAGE was performed using standard techniques using a premixed electrophoresis buffer which contains 25 mM Tris, 192 mM glycine and 0.1% SDS (Tris/Glycine/SDS buffer) to determine the conjugation efficiency between the BSA-FITC and the copolymer. Samples were prepared for electrophoresis without the use of a reducing agent. The samples were mixed with bromophenol blue (0.01% w/v) solution as the marker. The samples were resolved through a 10% polyacrylamide gel which was performed using a BioRad Mini-Protean II electrophoresis setup at a constant voltage (150 V). The samples were stained using Colloidal Blue Coomassie G-250 (Bio-Rad), and left overnight. Gel images were recorded using a Bio-Rad GS-800 calibrated densitometer. Native BSA was used as a control.
The size and shape of the BSA conjugated copolymer in PBS solution was investigated using DLS and TEM.

Data set [2] in a line: Hydrodynamic diameter and zeta potential of materials and complexes (Example 3). Format: physicochemical. The following applies: pH 7; ISIS 5132 200 ug/ml, BSA 1 mg/ml, PDMAEMA 0.21 mg/ml. On the procedure: The resulting conjugates were dialysed in 0.05 M PBS (pH5) for 12 h by changing solvent every 2 h. […] All the conditions were kept consistent to the corresponding oligonucleotide samples. In addition, the oligonucleotide transfection efficiency of the PEGMEMA-PDMAEAM cationic block copolymer was investigated. The same protocol was adopted to make the polyion complex micelles from this polymer solution.
The condensation of the oligonucleotide was therefore carried out when the conjugate solution was at pH5 and the oligonucleotide was dissolved in MilliQ water. The albumin-polymer conjugates with a pH of 5 was then slowly added to the solutions of ISIS 5132 with the concentration of 200 μg/ml (ζ=−29.87 mV at pH7). […] After the complex micelle was stable, the system was brought back to pH7. There are several reasons for this: to reduce the aggregation of the micelle, to protect the oligonucleotide and to keep the neutral environment for cells in the afterward cytotoxicity assays.

Data set [3] relates to prostate cancer cell lines. The experiment in a line: Cytotoxicity against three prostate cancer cell lines (Example 4). Format: cell-based. The conditions noted are these: chosen concentration range. As to the method: The product was tested for particle size and cytotoxicity against prostate cancer.
A further data set relates to cancer cells. The following applies: most effective free Curcumin study results; read-out: free Curcumin concentration to bring about 50% cell death; cited from earlier work.
A short description of data set [4]: Nile Red encapsulation efficiency by Fluorescence Spectroscopy. Type of data set: physicochemical. The following applies: preliminary polymer-protein aggregates loaded with Nile Red. The source says: After the formation of polymer-protein Curcumin carrying micelles of a desirable size, there was a clear need to determine the amount of Curcumin actually encapsulated. Preliminary aggregates were loaded with Nile Red dye to act as a makeshift drug and analysed by Fluorescence Spectroscopy. After comparison to a Calibration curve established from analysis of Nile Red concentrations dissolved in DMSO solvent, the intensity was backcalculated to yield a 30.4% encapsulation efficiency.

P(HPMA13-co-[(AC-DAP)9-Pt8]) registered a PDi in data set [1] of 0.14.

Turning to “ISIS 5132: 20-base antisense phosphorothioate oligodeoxyribonucleotide: 5′TCCCGCCTGTGACATGCATT3′ (DNA dT*dC*dC*dC*dG*dC*dC*dT*dG*dT*dG*dA*dC*dA*dT*dG*dC*dA*dT*dT)”, in data set [2], the Dh is recorded as 0-107 nm and the Zeta potential is −29.87 mV.

Turning to `COc1cc(/C=C/C(=O)CC(=O)/C=C/c2ccc(O)c(OC)c2)ccc1O` [Curcumin], the toxicity entry in data set [3] is given as “only negligible toxicity”. In addition, in the data set with cancer cells, the IC50 is 10 µM.

Turning to BSA-FITC, the “Dh number (d/nm)” value in data set [1] (0.1M PBS pH 7, 25° C.) is recorded as 7.44 nm. The compound also gave a PDi in data set [1] of 0.58.

Take `CCN(CC)c1ccc2nc3c4ccccc4c(=O)cc-3oc2c1` [Nile Red]: the “Nile Red encapsulation efficiency” value in data set [4] is recorded as 30.4%.

The record behind these values is patent US10251958B2 (NEWSOUTH INNOVATIONS PTY LIMITED, priority 2013, dated 2019).
